Test results: patent publication US20250122182A1 (Isosterix, Inc., priority 2023, published 2025)

Key:
[1] = biological target: Recombinant KAT6A/MOZ (488-778) protein (Homo sapiens (Human), UniProt Q92794); assay: KAT6A AlphaLISA Inhibition Screening Assay; format: biochemical; settings: for inhibition at 1 µM: read-out: Average Kat6A % inhibition @ 1 μM; for inhibition at 1 µM / Average Kat6A % inhibition @ 1 μM: 1 μM test compound; for inhibition at 10 µM: read-out: Average Kat6A % inhibition @ 10 μM; for inhibition at 10 µM / Average Kat6A % inhibition @ 10 μM: 10 μM test compound
Sequence of Recombinant KAT6A/MOZ (488-778) protein (Q92794 488-778): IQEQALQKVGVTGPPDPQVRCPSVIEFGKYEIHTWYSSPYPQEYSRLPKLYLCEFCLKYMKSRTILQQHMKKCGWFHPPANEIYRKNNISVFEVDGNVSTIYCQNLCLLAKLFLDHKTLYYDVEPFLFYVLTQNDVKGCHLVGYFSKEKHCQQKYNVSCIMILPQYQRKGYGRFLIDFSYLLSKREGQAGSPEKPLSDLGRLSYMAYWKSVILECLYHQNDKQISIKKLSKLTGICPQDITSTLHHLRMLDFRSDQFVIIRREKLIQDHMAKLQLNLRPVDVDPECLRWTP
Summary of the method: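 AlphaLISA read-out with anti-acetyl-lysine acceptor and streptavidin donor beads, % inhibition relative to vehicle. Reaction: biotinylated histone H3 1-21 (200 nM) and acetyl-CoA (400 nM) with KAT6A 488-778 (25 nM), 120 min at room temperature, pH 8.0, 330 nM TSA, after 60 or 10 min enzyme–compound pre-incubation; 10-point 3-fold series from 10 μM.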

FLAG-Tagged Kat6A = FLAG-Tagged Kat6A (Homo sapiens (Human), UniProt Q92794); assay: KAT6A IC50 using FLAG-tagged Kat6A (radioisotope-based filtration assay); settings: 60 minutes preincubation with enzyme; Histone H3 peptide substrate; 1 μM Acetyl-CoA; read-out: Biochemical assay:Kat6A IC50
Sequence of FLAG-Tagged Kat6A (Q92794 488-778): as above
Protocol: (§1) Compounds were suspended in as a stock of 10 mM in DMSO. Compounds were diluted and tested in 10-doses with 3-fold serial dilutions starting with 10 μM as the highest concentration. Compounds were preincubated in the reaction mixture with the enzyme (5 nM KAT6A, amino acids 488-778 with an N-terminal FLAG tag incorporated; 10 nM […] protein, amino acids 657-1069 with an N-terminal GST tag). This preincubation was for 60 minutes prior to the addition of substrate. […] Reactions were performed in reaction buffer 50 mM Tris-HCl, pH 8.0, 50 mM NaCl, 0.1 mM EDTA, […], 1% DMSO and the reactions initiated with the addition of Acetyl-CoA as a co-factor, with histone acetylation measured with a radiometric activity assay using a radioisotope-based filtration assay. Inhibition of acetylation was calculated using with standard curve-fitting model and IC50 determination.

GST-Tagged Kat6B = GST-Tagged Kat6B (Homo sapiens (Human), UniProt Q8WYB5); assay: Kat6B IC50 using GST-tagged Kat6B (radioisotope-based filtration assay); settings: 60 minutes preincubation with enzyme; Histone H4 peptide substrate; 1 μM Acetyl-CoA; read-out: Biochemical assay:Kat6B IC50
Sequence of GST-Tagged Kat6B (Q8WYB5 657-1069): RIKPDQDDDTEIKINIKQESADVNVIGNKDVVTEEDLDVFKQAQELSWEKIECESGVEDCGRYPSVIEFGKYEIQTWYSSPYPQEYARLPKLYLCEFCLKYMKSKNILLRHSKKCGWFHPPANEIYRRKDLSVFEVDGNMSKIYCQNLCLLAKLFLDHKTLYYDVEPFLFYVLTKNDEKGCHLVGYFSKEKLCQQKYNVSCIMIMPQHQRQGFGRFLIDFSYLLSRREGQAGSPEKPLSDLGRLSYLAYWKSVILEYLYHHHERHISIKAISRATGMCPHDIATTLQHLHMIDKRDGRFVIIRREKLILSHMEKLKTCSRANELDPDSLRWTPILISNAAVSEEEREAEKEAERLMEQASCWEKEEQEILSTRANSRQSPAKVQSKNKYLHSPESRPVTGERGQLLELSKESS
Protocol: as §1

ZR-75-1 cells = assay: Cell Titer-Glo Luminescent Cell Viability Assay in ZR-75-1 Cells; format: cell-based; settings: compounds replenished every 48 hours till day 10, CellTiter-Glo
Protocol: The CellTiter-Glo® Luminescent Cell Viability Assay is a homogeneous method employed to determine the number of metabolically active cells in culture. On day 0, ZR-75-1 cells were detached completely from the culture flasks using 0.25% trypsin-EDTA (Catalog #25200056, Gibco). ZR-75-1 cells were seeded into white opaque-96 well culture plate (Catalog #6005680, Perkin Elmer) at a density of 1500 cells per well in 200 μL of RPMI 1640 medium (Catalog #A1049101, Gibco) supplemented with 10% Fetal Bovine Serum (Catalog #16000044, Gibco) and 1× Penicillin-Streptomycin (Catalog #15140122, Gibco). The plates were incubated at 37° C. with 5% CO2 for 24 hours. On day 1, the spent media was removed from each well of the plate and 180 μL of fresh RPMI 1640 complete media was added. Test compounds were diluted in 100% DMSO followed by complete media. 20 μL of media containing compounds were added to each well so that the final DMSO concentration was 0.5%. The test compounds were tested for 10 points DRC (10 μM top concentration, 3-fold dilution). The assay plates were incubated at 37° C. with 5% CO2 for 48 hours. The test compounds and media were replenished every 48 hours till day 10.
On day 10, the CellTiter-Glo® 2.0 reagent (Catalog #G9242, Promega) was thawed and equilibrated to room temperature. Assay plates were removed from the incubator and equilibrated to room temperature for about 30 minutes. 100 μL of spent media was removed from each well and then 50 μL of CellTiter-Glo® 2.0 Reagent was added. The plates were incubated on an orbital shaker at room temperature for 10 minutes to induce cell lysis and stabilize luminescent signal. The luminescent signal was recorded using Perkin Elmer Envision multi-mode plate reader. Percent cytotoxicity induced by test compounds was determined relative to vehicle control. EC50 value for test compounds was calculated using GraphPad Prism software (four parameter-variable slope equation).

inhibition at 1 µM [1] | inhibition at 10 µM [1] | IC50 (FLAG-Tagged Kat6A) | IC50 (GST-Tagged Kat6B) | Average Kat6A % inhibition @ 1 μM [1] | Average Kat6A % inhibition @ 10 μM [1] | Compound | EC50 (ZR-75-1 cells; Homo sapiens) | EC50 (ZR-75-1 cells)
100% | 100% | 5 nM | 1020 nM |  |  | CC#CC(=O)NCc1cnn(Cc2cc(OC)c3c(NS(=O)(=O)c4cc(CC)ccc4OC)noc3c2)c1 [Syn. Ex. 15, N-((1-((3-((5-ethyl-2-methoxyphenyl)sulfonamido)-4-methoxybenzo[d]isoxazol-6-yl)methyl)-1H-pyrazol-4-yl)methyl)but-2-ynamide] | 100 to 1000 nM | 
100% | 100% | 12 nM | 3670 nM |  |  | C=C(F)C(=O)NCc1cnn(Cc2cc(OC(F)F)c3c(NS(=O)(=O)c4cc(CC)ccc4OC)noc3c2)c1 [Syn. Ex. 52, N-((1-((4-(difluoromethoxy)-3-((5-ethyl-2-methoxyphenyl)sulfonamido)benzo[d]isoxazol-6-yl)methyl)-1H-pyrazol-4-yl)methyl)-2-fluoroacrylamide] | 100 to 1000 nM | 
100% | 100% | 2 nM | 878 nM |  |  | C=C(F)C(=O)NCc1cnn(Cc2cc(OC)c3c(NS(=O)(=O)c4cc(CC)ccc4OC)noc3c2)c1 [Syn. Ex. 14, N-((1-((3-((5-ethyl-2-methoxyphenyl)sulfonamido)-4-methoxybenzo[d]isoxazol-6-yl)methyl)-1H-pyrazol-4-yl)methyl)-2-fluoroacrylamide] | < 100 nM | 
98% | 96% | 34 nM | 2400 nM |  |  | COC(=O)NCc1cnn(Cc2cc(OC(F)F)c3c(NS(=O)(=O)c4c(OC)cccc4OC)noc3c2)c1 [Syn. Ex. 50, methyl ((1-((4-(difluoromethoxy)-3-((2,6-dimethoxyphenyl)sulfonamido)benzo[d]isoxazol-6-yl)methyl)-1H-pyrazol-4-yl)methyl)carbamate] | 100 to 1000 nM | 
100% | 100% | 4 nM | 2490 nM |  |  | CCc1ccc(OC)c(S(=O)(=O)Nc2noc3cc(Oc4ncc(CNC(=O)OC)s4)cc(OC)c23)c1 [Syn. Ex. 101, methyl ((2-((3-((5-ethyl-2-methoxyphenyl)sulfonamido)-4-methoxybenzo[d]isoxazol-6-yl)oxy)thiazol-5-yl)methyl)carbamate] |  | 
100% | 100% | 2 nM | 1630 nM |  |  | C=C(F)C(=O)Nc1ccc(Oc2cc(OC)c3c(NS(=O)(=O)c4cc(CC)ccc4OC)noc3c2)nc1 [Syn. Ex. 107, N-(6-((3-((5-ethyl-2-methoxyphenyl)sulfonamido)-4-methoxybenzo[d]isoxazol-6-yl)oxy)pyridin-3-yl)-2-fluoroacrylamide] |  | 
 |  | 2 nM | 722 nM | 100% | 100% | COC(=O)NCc1cnn(Cc2cc(OC)c3c(NS(=O)(=O)c4cc5c(cc4OC)CCC5)noc3c2)c1 [Syn. Ex. 25, methyl ((1-((4-methoxy-3-((6-methoxy-2,3-dihydro-1H-indene)-5-sulfonamido)benzo[d]isoxazol-6-yl)methyl)-1H-pyrazol-4-yl)methyl)carbamate] |  | < 100 nM
 |  | 22 nM | 571 nM | 97% | 99% | COC(=O)NCc1cnn(Cc2cc(OC)c3c(NS(=O)(=O)c4ccccc4OC)noc3c2)c1 [Syn. Ex. 7, methyl ((1-((4-methoxy-3-((2-methoxyphenyl)sulfonamido)benzo[d]isoxazol-6-yl)methyl)-1H-pyrazol-4-yl)methyl) carbamate] |  | < 100 nM
